What all share (assay type): functional
For test [1], the system named is Pseudomonas aeruginosa. The experiment in a line: Antibacterial activity against Pseudomonas aeruginosa ATCC 9027 at 50 ug/ml by cup-plate method. As to conditions: read-out: IZ.
Test [2] deals with Pseudomonas aeruginosa. The experiment in a line: Antibacterial activity against Pseudomonas aeruginosa ATCC 9027 at 50 to 100 ug/ml by cup-plate method.
Test [3] concerns Pseudomonas aeruginosa. The experiment in a line: Antibacterial activity against Pseudomonas aeruginosa ATCC 9027 at 100 ug/ml by cup-plate method. As to conditions: read-out: IZ.
Test [4] has as its system Bacillus subtilis. The experiment in a line: Antibacterial activity against Bacillus subtilis ATCC 6633 at 50 ug/ml by cup-plate method. As to conditions: read-out: IZ.
In test [5] the test system is Bacillus subtilis. The experiment in a line: Antibacterial activity against Bacillus subtilis ATCC 6633 at 50 to 100 ug/ml by cup-plate method.
Test [6] deals with Bacillus subtilis. In words: Antibacterial activity against Bacillus subtilis ATCC 6633 at 100 ug/ml by cup-plate method. To be noted: read-out: IZ.
Test [7] relates to Staphylococcus aureus. The experiment in a line: Antibacterial activity against Staphylococcus aureus ATCC 9144 at 50 to 100 ug/ml by cup-plate method.
The test system of test [8] is Staphylococcus aureus. In words: Antibacterial activity against Staphylococcus aureus ATCC 9144 at 50 ug/ml by cup-plate method. As to conditions: read-out: IZ.
The test system of test [9] is Staphylococcus aureus. In words: Antibacterial activity against Staphylococcus aureus ATCC 9144 at 100 ug/ml by cup-plate method. As to conditions: read-out: IZ.
Test [10] concerns Candida albicans. In words: Antifungal activity against Candida albicans ATCC 10231 at 100 ug/ml by cup-plate method. As to conditions: read-out: IZ.
In test [11] the test system is Candida albicans. In words: Antifungal activity against Candida albicans ATCC 10231 at 50 ug/ml by cup-plate method. To be noted: read-out: IZ.
For test [12], the system named is Escherichia coli. In words: Antibacterial activity against Escherichia coli ATCC 25922 at 50 ug/ml by cup-plate method. To be noted: read-out: IZ.
In test [13] the test system is Escherichia coli. In words: Antibacterial activity against Escherichia coli ATCC 25922 at 50 to 100 ug/ml by cup-plate method.
The subject of test [14] is Escherichia coli. The experiment in a line: Antibacterial activity against Escherichia coli ATCC 25922 at 100 ug/ml by cup-plate method. As to conditions: read-out: IZ.

Structures are written as SMILES.

Turning to `COc1ccc(C2C(Cl)C(=O)N2c2ccc(-n3c(Cc4ccccc4Nc4c(Cl)cccc4Cl)nc4ccc(Br)cc4c3=O)cc2)c(O)c1` (centres undefined), the zone of inhibition at 50 µg/mL in test [1] stood at 3 mm; in test [4], 4 mm; in test [8], 4 mm; in test [11] it was 0 mm; in [12], 4 mm. The Activity is given as 50.98% in test [2], 44.69% in [5], 58.33% in test [7] and 50% in test [13]. The zone of inhibition at 100 µg/mL in test [3] is 6 mm; in [6], 7 mm; in [9] it was 7 mm; in [10], 1 mm; in test [14], 7 mm.

Regarding `COc1cc(/C=N/c2ccc(-n3c(Cc4ccccc4Nc4c(Cl)cccc4Cl)nc4ccc(Br)cc4c3=O)cc2)cc(OC)c1OC`, the zone of inhibition at 50 µg/mL is 2 mm in test [1]; 4 mm in [4]; 3 mm in test [8]; 1 mm in test [11]; 4 mm in [12]. In addition, the Activity in test [2] is recorded as 47.09%; in test [5] it was 53.33%; in test [7], 50.98%; in [13], 50%. In addition, the zone of inhibition at 100 µg/mL in test [3] came to 5 mm; in test [6] it was 8 mm; in test [9], 6 mm; in [10] it was 2 mm; in test [14] it was 7 mm.

For the compound `CCN(CC)c1ccc(/C=N/c2ccc(-n3c(Cc4ccccc4Nc4c(Cl)cccc4Cl)nc4ccc(Br)cc4c3=O)cc2)c(O)c1`, the zone of inhibition at 50 µg/mL in test [1], in test [4], in [8], in [11] and in test [12] was 0 mm throughout. Moreover, the Activity in test [2], in test [5], in [7] and in test [13] was 0% each time. Further, the zone of inhibition at 100 µg/mL in test [3], in test [6], in [9], in test [10] and in test [14] was 0 mm throughout.

Consider `O=c1c2cc(Br)ccc2nc(Cc2ccccc2Nc2c(Cl)cccc2Cl)n1-c1ccc(/N=C/c2ccccc2O)cc1`, for which the zone of inhibition at 50 µg/mL in [1] worked out at 2 mm; in test [4], 3 mm; in [8], 3 mm; in test [11], 0 mm; in test [12], 3 mm. The Activity in test [2] is recorded as 38.83%; in [5], 36%; in test [7], 42.87%; in test [13], 36.74%. Further, the zone of inhibition at 100 µg/mL in test [3] was 4 mm; in test [6] it was 5 mm; in [9], 5 mm; in test [10] it was 1 mm; in [14] it was 5 mm.

Consider `O=C1C(Cl)C(c2cccc([N+](=O)[O-])c2)N1c1ccc(-n2c(Cc3ccccc3Nc3c(Cl)cccc3Cl)nc3ccc(Br)cc3c2=O)cc1` (centres undefined), for which the zone of inhibition at 50 µg/mL in [1] was determined as 2 mm; in [4] it was 2 mm; in test [8], 1 mm; in [11], 1 mm; in test [12], 2 mm. In addition, the Activity in test [2] was 36.75%; in test [5] it was 32.65%; in test [7], 29.73%; in test [13], 32.65%. For the same compound, the zone of inhibition at 100 µg/mL was found to be 4 mm in test [3]; 4 mm in test [6]; 3 mm in test [9]; 2 mm in test [10]; 4 mm in [14].

`COc1ccc(/C=N/c2ccc(-n3c(Cc4ccccc4Nc4c(Cl)cccc4Cl)nc4ccc(Br)cc4c3=O)cc2)cc1`: the zone of inhibition at 50 µg/mL in test [1] was determined as 3 mm; in test [4] it was 5 mm; in [8], 4 mm; in test [11], 2 mm; in test [12], 5 mm. In addition, the Activity is on record as 52.88% in test [2], 63.91% in test [5], 53.85% in test [7] and 64.33% in test [13]. Moreover, the zone of inhibition at 100 µg/mL worked out at 6 mm in [3]; 9 mm in test [6]; 7 mm in test [9]; 3 mm in [10]; 9 mm in test [14].

On to `COc1ccc(/C=N/c2ccc(-n3c(Cc4ccccc4Nc4c(Cl)cccc4Cl)nc4ccc(Br)cc4c3=O)cc2)c(O)c1`, for which the zone of inhibition at 50 µg/mL came to 2 mm in test [1]; 4 mm in test [4]; 4 mm in [8]; 0 mm in [11]; 4 mm in test [12]. For the same compound, the Activity worked out at 38.83% in test [2], 47.81% in test [5], 50% in test [7] and 42.86% in test [13]. Besides, the zone of inhibition at 100 µg/mL came out at 4 mm in test [3]; 7 mm in test [6]; 6 mm in test [9]; 0 mm in [10]; 6 mm in test [14].

Turning to `O=c1c2cc(Br)ccc2nc(Cc2ccccc2Nc2c(Cl)cccc2Cl)n1-c1ccc(/N=C/c2ccccc2[N+](=O)[O-])cc1`, the zone of inhibition at 50 µg/mL came to 2 mm in test [1]; 3 mm in test [4]; 2 mm in [8]; 1 mm in test [11]; 2 mm in [12]. Also, the Activity in test [2] amounted to 35.33%; in test [5] it was 36%; in [7], 28.43%; in test [13] it was 32.65%. Further, the zone of inhibition at 100 µg/mL worked out at 4 mm in [3]; 5 mm in [6]; 3 mm in test [9]; 2 mm in test [10]; 4 mm in [14].

On to `CN(C)c1ccc(/C=N/c2ccc(-n3c(Cc4ccccc4Nc4c(Cl)cccc4Cl)nc4ccc(Br)cc4c3=O)cc2)cc1`, for which the zone of inhibition at 50 µg/mL in [1], in test [4], in [8], in test [11] and in test [12] was 0 mm throughout. The Activity in test [2], in test [5], in test [7] and in test [13] was 0% each time. Also, the zone of inhibition at 100 µg/mL in test [3] came out at 0 mm; in test [6], 0 mm; in [9] it was 0 mm; in test [10], 1 mm; in test [14] it was 0 mm.

Take `CCN(CC)c1ccc(C2C(Cl)C(=O)N2c2ccc(-n3c(Cc4ccccc4Nc4c(Cl)cccc4Cl)nc4ccc(Br)cc4c3=O)cc2)c(O)c1` (centres undefined): the zone of inhibition at 50 µg/mL in test [1], in [4], in test [8], in test [11] and in test [12] was 0 mm in each case. Moreover, the Activity in [2], in test [5], in test [7] and in test [13] was 0% throughout. Further, the zone of inhibition at 100 µg/mL in test [3], in [6], in test [9], in [10] and in test [14] was 0 mm each time.

Regarding `O=C1C(Cl)C(c2ccccc2Cl)N1c1ccc(-n2c(Cc3ccccc3Nc3c(Cl)cccc3Cl)nc3ccc(Br)cc3c2=O)cc1` (centres undefined), the zone of inhibition at 50 µg/mL turned out to be 4 mm in test [1]; 3 mm in test [4]; 4 mm in test [8]; 2 mm in test [11]; 3 mm in test [12]. Further, the Activity in [2] is 58.33%; in [5], 41.48%; in [7], 65.76%; in test [13] it was 44.56%. Further, the zone of inhibition at 100 µg/mL stood at 7 mm in test [3]; 6 mm in [6]; 8 mm in [9]; 3 mm in test [10]; 6 mm in test [14].
